What was measured:
Test in all cases: relative viability (nuclei count vs DMSO), 5 days (fraction); higher = more cells survive
Carfilzomib + Vorinostat = compound: CC(C)C[C@H](NC(=O)[C@H](CCc1ccccc1)NC(=O)CN1CCOCC1)C(=O)N[C@@H](Cc1ccccc1)C(=O)N[C@@H](CC(C)C)C(=O)[C@@]1(C)CO1 [Carfilzomib] + O=C(CCCCCCC(=O)Nc1ccccc1)NO [Vorinostat] (partner 1 µM)
Method in brief: (§1)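 Lung cancer cell lines were pin-tool dosed in 1536-well plates on the day after seeding, with either a lone drug or a fixed anchor-drug dose plus five library-drug doses (not always all listed) in √10 steps. Nuclei were counted on 4× images after 5 days. Relative viability is the ratio of treated-well to vehicle-well nuclei counts, with each value a median of duplicate plates.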

Crizotinib + Lapatinib = compound: C[C@@H](Oc1cc(-c2cnn(C3CCNCC3)c2)cnc1N)c1c(Cl)ccc(F)c1Cl [Crizotinib] + CS(=O)(=O)CCNCc1ccc(-c2ccc3ncnc(Nc4ccc(OCc5cccc(F)c5)c(Cl)c4)c3c2)o1 [Lapatinib] (partner 2 µM)
Method in brief: as §1

Crizotinib + AZD7762 = compound: C[C@@H](Oc1cc(-c2cnn(C3CCNCC3)c2)cnc1N)c1c(Cl)ccc(F)c1Cl [Crizotinib] + NC(=O)Nc1cc(-c2cccc(F)c2)sc1C(=O)N[C@H]1CCCNC1 [AZD7762] (partner 0.2 µM)
Method in brief: as §1

Olaparib + Crizotinib = compound: O=C(c1cc(Cc2n[nH]c(=O)c3ccccc23)ccc1F)N1CCN(C(=O)C2CC2)CC1 [Olaparib] + C[C@@H](Oc1cc(-c2cnn(C3CCNCC3)c2)cnc1N)c1c(Cl)ccc(F)c1Cl [Crizotinib] (partner 1 µM)
Method in brief: as §1

Row | Cell Line | relative viability (Carfilzomib + Vorinostat; first compound 0.001 µM) | relative viability (Carfilzomib + Vorinostat; first compound 0.003162 µM) | relative viability (Carfilzomib + Vorinostat; first compound 0.01 µM) | relative viability (Carfilzomib + Vorinostat; first compound 0.03162 µM) | relative viability (Carfilzomib + Vorinostat; first compound 0.1 µM) | relative viability (Crizotinib + Lapatinib; first compound 0.01 µM) | relative viability (Crizotinib + Lapatinib; first compound 0.03162 µM) | relative viability (Crizotinib + Lapatinib; first compound 0.1 µM) | relative viability (Crizotinib + Lapatinib; first compound 0.3162 µM) | relative viability (Crizotinib + Lapatinib; first compound 1 µM) | relative viability (Crizotinib + AZD7762; first compound 0.01 µM) | relative viability (Crizotinib + AZD7762; first compound 0.03162 µM) | relative viability (Crizotinib + AZD7762; first compound 0.1 µM) | relative viability (Crizotinib + AZD7762; first compound 0.3162 µM) | relative viability (Crizotinib + AZD7762; first compound 1 µM) | relative viability (Olaparib + Crizotinib; first compound 0.08 µM) | relative viability (Olaparib + Crizotinib; first compound 0.253 µM) | relative viability (Olaparib + Crizotinib; first compound 2.53 µM) | relative viability (Olaparib + Crizotinib; first compound 8 µM)
1 | LOU-NH91 | 1.03 | 1.03 | 0.443 | 0.302 | 0.328 | 0.738 | 0.731 | 0.677 | 0.57 | 0.712 | 0.778 | 0.82 | 0.796 | 0.719 | 0.716 | 0.785 | 0.71 | 0.721 | 0.744
2 | LU99A | 0.467 | 0.649 | 0.404 | 0.225 | 0.167 | 0.824 | 1.02 | 0.976 | 1.03 | 0.928 | 0.276 | 0.362 | 0.34 | 0.32 | 0.407 | 0.522 | 0.495 | 0.427 | 0.42
3 | LXF-289 | 0.747 | 0.795 | 0.738 | 0.0661 | 0.101 | 0.902 | 0.886 | 0.925 | 0.779 | 0.872 | 1.05 | 1.11 | 1.16 | 1 | 1.19 | 0.907 | 0.799 | 0.889 | 0.875
4 | NCI-H23 | 0.506 | 0.656 | 0.195 | 0.118 | 0.0962 | 1.12 | 1.03 | 1.09 | – | 1.18 | 0.281 | 0.323 | 0.297 | – | 0.261 | 0.673 | 0.444 | 0.492 | 0.274
5 | NCI-H322M | 0.796 | 0.898 | 0.952 | 0.788 | 0.38 | 0.478 | 0.642 | 0.616 | 0.584 | 0.701 | – | 0.575 | 0.609 | 0.547 | 0.584 | 1.03 | 0.803 | 0.994 | 0.902
6 | NCI-H358 | 0.69 | 0.692 | 0.515 | 0.0656 | 0.0773 | 0.392 | 0.447 | 0.445 | 0.382 | 0.483 | – | 0.533 | 0.469 | 0.458 | 0.492 | 0.606 | 0.541 | 0.651 | 0.518
7 | NCI-H460 | 0.743 | 0.661 | 0.68 | 0.093 | 0.0182 | 0.977 | 1.24 | 0.983 | 0.94 | 0.982 | 0.592 | 0.64 | 0.665 | – | 0.607 | 0.875 | 0.744 | 0.502 | 0.17
8 | NCI-H596 | 0.585 | 0.612 | 0.448 | 0.173 | 0.159 | 1.02 | 1.12 | 1.02 | 1.02 | 1.24 | 1.05 | 1.01 | 1.03 | – | 1.16 | 0.736 | 0.866 | 1.02 | 0.833

From the supplement of paper PMC10307832
